From patent US6420120B1, “Use of a polypeptide as cell receptor for adenoviruses” (priority 1997, dated 2002)

How the values were obtained:
Assay in all cases: Bifunctional ligand: Ad5Luc3 attachment to peptide-pretreated cells, luciferase activity
Conditions in all cases: 500 μM peptide, 1 h at 0-4° C. before Ad5Luc3
NIH-3T3 cells = assay type: cell-based, murine
Procedure: (§1) The human cells (HeLa) or murine cells (Swiss-3T3 or NIH-3T3, ATCC CRL-1658) are rinsed and incubated between 0 and 4° C. with an isotonic solution (PBS) containing 500 μM of peptide. After 1 h, the solution is removed and replaced with the viral inoculum (Ad5Luc3) according to a protocol already described (see above or Hong et al., 1997, EMBO J. 16, 2294-2306). The virus is incubated for 1 hour between 0 and 4° C. to allow its attachment, and then the excess nonadsorbed virus is rinsed with culture medium precooled to 4° C. and the cells are again placed at 37° C. in the presence of culture medium preheated to 37° C. The virus is endocytosed at 37° C. and the viral cycle then lasts for 18 to 20 h at 37° C.

Swiss-3T3 cells = assay type: cell-based, murine
Procedure: as §1

HeLa cells = assay type: cell-based, human
Procedure: as §1

Substance | increase in the luciferase activity (number of adsorbed viruses) versus no peptide (NIH-3T3 cells) | increase in the luciferase activity (number of adsorbed viruses) versus no peptide (Swiss-3T3 cells) | increase in the luciferase activity (number of adsorbed viruses) versus no peptide (HeLa cells)
GRP-MH20: bifunctional peptide with reverse orientation, GRP at N-terminus and MH20 at C-terminus, SEQ ID No: 23 (KMYPRGNHWAVGHLMRAIVGFRVQWLRRYFVNGSR; listed as Homo sapiens) | eight to ten times | two to three times | five to six times
MH20-GRP: bifunctional peptide, MH20 at N-terminus fused to GRP (Gastrin Releasing Peptide), SEQ ID No: 22 (RAIVGFRVQWLRRYFVNGSRKMYPRGNHWAVGHLM; listed as Homo sapiens) | identical slope | identical slope | identical slope
